# Laboratory results published in EP0794786B1, “THE USE OF INOSITOLTRI[…] THE PREPARING OF MEDICAMENTS” (Bioneris AB,, priority 1994, dated 1996).
# Tests used:
# Format in all cases: in vivo
# prostate tumor tissue = experiment: Prostate tumor growth in mice after subcutaneous injection of a specific cell type, IP3 via osmotic minipumps
# Excerpt: In a procedure similar to the one described in example 2 prostate tumor growth was induced by subcutanous injection of a specific cell type to mice. One group of animals received IP3 via osmotic minipumps while another group of animals served as a control.
# glioma tumor tissue = experiment: Glioma tumor growth in mice after subcutaneous inoculation of rat glial cells, IP3 via osmotic minipumps
# Method: Rat glial cells were grown in a stationary suspension culture in a medium supplemented with 15 % heat inactivated horse serum and 2.5 % heat inactivated fetal calf serum in a 5 % CO2 humidified atmosphere at 37°C.
# The cells were harvested using trypsine solution and the concentration of cells were measured. The cells were centrifuged and resuspended to a concentration of 1 million cells/ml.
# Twelve female specific pathogen free mice at an age of 12 weeks (weighing 20-25 g) were maintained in autoclaved cages with filter tops in horizontal air flow cabiners in a unit equipped with specific filters. Autoclaved bedding, irradiated feed and sterile water was used. The temperature and humidity was kept constant at 22 ± 2°C, 65 ± 5 % relative humidity.
# To each animal 0.1 ml of the cellsuspension was inoculated subcutanousely in the right flank at day 0.
# After five days, osmotic minipumps (ALZET) were surgically placed subcutanously into 7 animals, while 5 animals, shamoperated, served as a control group.
# Each minipump contained approximately 200 µl of a solution of 1.0 g/2,5 ml of the sodium salt of 1-D-myo-inositol-1,2,6-trisphosphate (IP3). The minipumps gave a continous dosage of IP3 for 14 days.
# The injection of glioma cells into the animals cause a growth of tumors. The growth of the tumors was examined by measuring two diameters along two perpendicular axes. The true tumor diameter was estimated as the diameter minus 0.5 mm (which is the thickness of the skin). Tumor area (A) was calculated by multiplying the two true diameters and tumor volume was calculated by the formula: /6 x A^3/2 x 0.67.
# [1] = test system: Lewis lung carcinoma cells (ATCC CRL-1642); experiment: Lewis lung carcinoma experiment in mice: lung weight and histological angiogenesis
# Method: Lewis lung carcinoma cells (ATCC CRL-1642) were grown as a suspension culture in a medium with 4.5 g/l glucose with 10 % heat inactivated bovine serum in a 5 % CO2 humidified atmosphere at 37°C. The cells were subcultured by diluting cell suspensions 1:6. After harvesting by centrifugation and resuspension, the cells were counted in a counting chamber. The cells were resuspended with medium to a concentration of 10 million cells/ml.
# Ten male specific pathogen free mice at an age of 6 weeks were maintained in autoclaved caves with filter tops in a barrier unit equipped with HEPA filters. Autoclaved bedding, irradiated feed and sterile filtered water was used. The temperature and humidity was kept constant (22 ± 2°C, 65 ± 5 % RH).
# To each animal 0.1 ml of the cell suspension was inoculated subcutanousely in the right flank at day 0. After 15 days, osmotic minipumps (ALZET) were surgically placed subcutaneously into 5 animals while another 5 animals, sham operated, served as a control group.
# Each minipump contained 226 µl of a solution of 0.4 g/ml of the sodium salt of 1-D-myo-inositol-1,2,6-trisphosphate (IP3). The minipumps gave a continous dosage of IP3 for 6 days.
# The injection of lung carcinoma cells cause a formation of tumors and angiogenesis in lung tissue. The weight of the lungs after the experiment is considered as a measurement of the amount of tumor tissue which is formed.
# [2] = Toxicity after intraperitoneal injection to mice; settings: 160 mg/kg body weight by intraperitoneal injection to mice
smiles,measurement,setting,value
"O=P(O)(O)O[C@@H]1[C@H](OP(=O)(O)O)[C@H](O)[C@@H](O)[C@H](O)[C@H]1OP(=O)(O)O [IP3, D-myo-inositol-1,2,6-trisphosphate]",Tumor volume,prostate tumor tissue; Day 0,0 mm^3
same,Tumor volume,prostate tumor tissue; Day 7,36 mm^3
same,Tumor volume,prostate tumor tissue; Day 10,62 mm^3
same,Tumor volume,prostate tumor tissue; Day 17,51 mm^3
same,Tumor volume,prostate tumor tissue; Day 24,95 mm^3
same,Tumor volume,prostate tumor tissue; Day 28,171 mm^3
same,Tumor volume,prostate tumor tissue; Day 35,215 mm^3
same,Tumor volume,glioma tumor tissue; Day 0 (inoculation; minipumps placed after five days),0 mm^3
same,Tumor volume,"glioma tumor tissue; Day 10, sodium salt of IP3 1.0 g/2,5 ml, approx. 200 µl minipump s.c. from day 5, continuous for 14 days",115 mm^3
same,Tumor volume,"glioma tumor tissue; Day 13, minipump s.c. from day 5, continuous for 14 days",270 mm^3
same,Tumor volume,"glioma tumor tissue; Day 15, minipump s.c. from day 5, continuous for 14 days",620 mm^3
same,Tumor volume,"glioma tumor tissue; Day 17, minipump s.c. from day 5, continuous for 14 days",880 mm^3
same,Tumor volume,"glioma tumor tissue; Day 20, minipump s.c. from day 5, continuous for 14 days",2420 mm^3
same,angiogenesis (histological examination),"[1]; IP3 minipump s.c. after 15 days, for 6 days, compared with sham operated animals",lower angiogenesis
same,mean lung weight,"[1]; sodium salt of IP3 0.4 g/ml, 226 µl minipump s.c. after 15 days, continuous for 6 days, sham operated animals 0.312 g",0.198 g
same,toxic effects,[2],no toxic effects
